From PMC11537802, “The Neuroprotection of 1,2,4‐Triazole Derivative by Inhibiting Inflammation and Protecting BBB Integrity in Acute Ischemic Stroke” (CNS Neuroscience & Therapeutics, 2024) come the findings set out here.

Experiment [1] concerns HS. Nature of the experiment: glycocalyx component HS in serum of MCAO rats (ELISA). Format: in vivo, Sprague–Dawley rats. The settings on record: SYS18 high dose 15 mg/kg, 48 h, p < 0.05. The protocol: (§1) Rats were randomly divided into five groups: Sham group (n = 24), rats received sham operation; MCAO model group (n = 30); SYS18 low‐dose group (7.5 mg/kg, n = 30); SYS18 high‐dose group (15 mg/kg, n = 30); and Positive control group rats were intraperitoneally injected with edaravone (15 mg/kg, n = 30). The tested compound was dissolved in 20% polyoxyethylene castor oil and was administered 0.5 h before operation and 6, 12, 24, and 36 h after reperfusion. The measurements were carried out 48 h after the operation. Ten animals in each group were used to measure brain water content, and 10 animals in each group were used to detect Evans blue content in brain tissue. Ten animals in each group were used for determination of biochemical indicators and pathological observations and WB experiments.
(§2) Blood and brain sample were collected at 48 h after MCAO. After centrifugation at 4°C × 12,000 g for 10 min, the clear supernatant was stored at −80°C. Their concentrations of syndecan‐1, HS, and heparanase (HPSE) were determined using an ELISA kit. […] Substrates A and B were added, and the substrate was catalyzed by HRP to produce a product, which eventually converted under the action of a stop solution, and the absorbance (OD value) was measured at a wavelength of 450 nm on a microplate reader.

In experiment [2] the test system is heparanase (HPSE). Kind of experiment: heparanase (HPSE) in brain of MCAO rats (ELISA). Format: in vivo, Sprague–Dawley rats. The note with it: SYS18 high dose 15 mg/kg, 48 h, p < 0.05. The protocol: as §1, §2
The test system of experiment [3] is SOD. Nature of the experiment: serum SOD in MCAO rats (kit). The experiment is classed as in vivo, Sprague–Dawley rats. The note with it: 15 mg/kg, 48 h. As to the method: as §1
(§3) Blood sample was collected at 48 h after MCAO. After centrifugation at 4°C × 12,000 g for 10 min, the clear supernatant was stored at −80°C. The components of SOD, MDA, TNF‐α, and IL‐1β in the blood samples were measured according to the instructions of the assay kits.

Experiment [4] deals with MCAO rats. Nature of the experiment: brain water content (dry/wet weight) in MCAO rats. The experiment is classed as in vivo, Sprague–Dawley rats. The settings on record: 48 h reperfusion, model 83.18% ± 0.71%. As to the method: as §1
The brain water content was evaluated by measuring difference between the dry and wet weights of brains. Briefly, after rats were sacrificed after 48 h of reperfusion, the brains were measured immediately to obtain the wet weights. Then, the brains were drying in a constant temperature oven at 100°C for 24 h, followed by measurements to obtain the dry weights. Brain water content was calculated according to the following formula, brain water content = 100% × (wet weight − dry weight)/wet weight.

Experiment [5] has as its system IL‐1β. Kind of experiment: serum IL-1β in MCAO rats (ELISA). The experiment is classed as in vivo, Sprague–Dawley rats. The settings on record: 15 mg/kg, 48 h, p < 0.05. The protocol:
as §1, §3

Experiment [6] relates to MCAO rats. Nature of the experiment: blood–brain barrier permeability (Evans blue content in brain) in MCAO rats. The note with it: 48 h. Format: in vivo, Sprague–Dawley rats. The protocol: as §1
The integrity of the BBB was investigated using Evans blue (EB). Forty‐six hours after reperfusion, rats were injected with EB (4% saline, 4 mL/kg) via the tail vein. Two hours later, rats were anesthetized and perfused with saline through the left ventricle until colorless perfusate. After hydrangea and brainstem were removed, the brains were collected and homogenized. Evans blue was extracted from the brain with N,N‐dimethylformamide. After centrifugation at 3700 rpm for 15 min, the absorbance of supernatant was detected at 620 nm wavelength.

For experiment [7], the system named is syndecan‐1. Nature of the experiment: glycocalyx component syndecan-1 in MCAO rats (ELISA). The experiment is classed as in vivo, Sprague–Dawley rats. The settings on record: SYS18 high dose 15 mg/kg, 48 h, p < 0.05. The protocol:
as §1, §2

Experiment [8] relates to mice model of increased peritoneal capillary permeability. Kind of experiment: acetic acid-induced increased peritoneal capillary permeability model (Evans blue in peritoneal lavage). Format: in vivo, Kunming mice. As to the method: Sixty Kunming mice were randomly divided into control group, SYS18 low, medium, and high‐dose groups (20, 40, and 80 mg/kg, respectively), and positive control group was given celecoxib (40 mg/kg), 10 mice in each group. The mice in each group were administrated with 0.2 mL/10 g once a day for three consecutive days.
One hour after the last administration, 2% Evans blue saline 0.1 mL/10 g was injected via the tail vein, and 0.6% acetic acid 0.2 mL/10 g was injected intraperitoneally immediately. Twenty minutes later, the mice were killed, the abdominal cavity was cut open, and the abdominal cavity was washed several times with 5 mL normal saline to collect washing fluid. The samples were centrifuged at 4700 r/min for 5 min, and the lateral absorbance at the wavelength of 620 nm was measured with a UV spectrophotometer to compare the differences between groups.
Acetic acid‐induced increased peritoneal capillary permeability in mice is a classic model of peripheral inflammation. Anti‐inflammatory effects of SYS18 were evaluated by using an increased peritoneal capillary permeability assay. After intravenous injection of Evans blue saline solution, intraperitoneal injection of acetic acid was used to increase peritoneal capillary permeability in mice. The peritoneal capillary permeability of mice in each group was compared by collecting peritoneal lavage fluid and measuring abdominal Evans blue absorbance.

For experiment [9], the system named is MCAO rats. Kind of experiment: hematoxylin and eosin staining of brain tissue in MCAO rats. Format: in vivo, Sprague–Dawley rats. The settings on record: high-dose SYS18 (15 mg/kg), 48 h ischemia–reperfusion. The protocol: as §1
Hematoxylin and eosin staining were used to observe the effect of SYS18 on pathological changes in ischemia–reperfusion brain tissue. After 48 h of ischemia–reperfusion, the rats were sacrificed, and the brains were immediately fixed with 4% paraformaldehyde after transcranial perfusion with ice‐cold saline (The damaged brain is located in the ischemic penumbra of the right brain. Through HE staining and pathological sectioning under a microscope, the area where neuronal cells are morphologically intact and have not yet degenerated or necrotic is determined as the ischemic penumbra). […]

In the case of `COc1ccc(-c2nc(-c3ccccc3O)n(-c3ccc(S(N)(=O)=O)cc3)n2)c(O)c1` [SYS18, 4‐(3‐(2‐hydroxy‐4‐methoxyphenyl)‐5‐(2‐hydroxyphenyl)‐1H‐1,2,4‐triazol‐1‐yl) benzenesulfonamide], in [1], the “HS in serum vs model group” value was “decreased”. Moreover, the “HPSE in brain tissue vs model group” value in [2] is listed as “decreased”. The “SOD level in serum vs model group” value in [3] was “could improve SOD level in serum”. Besides, the brain water content is given as 81.98% ± 1.18% in [4] (7.5 mg/kg (low dose), p > 0.05) and 80.62% ± 1.73% in experiment [4] (15 mg/kg (SYS18 high dose; edaravone)). In addition, in experiment [5], the “IL-1β in serum vs model group” value is “significantly decreased”. In addition, the “Evans blue content in brain tissue” value came out at 7.06 ± 1.58 µg/g in experiment [6] (7.5 mg/kg (low dose), p > 0.05 vs model) and 5.74 ± 0.54 µg/g in experiment [6] (15 mg/kg (SYS18 high dose; or edaravone positive control)). Further, the “syndecan-1 in brain tissue vs model group” value in experiment [7] is “significantly increased”. The “absorbance of Evans blue in peritoneal lavage fluid vs model group” value in [8] (SYS18 high dose 80 mg/kg once a day for 3 days) is recorded as “no statistical difference”; in [8] (SYS18 low dose 20 mg/kg once a day for 3 days), “did not significantly reduce”. In experiment [8] (SYS18 medium dose 40 mg/kg once a day for 3 days), the “concentration of Evans blue in peritoneal lavage fluid vs model group” value is “significantly reduced”. Also, the “histological damage of nerve cells in cerebral cortex (HE staining)” value in experiment [9] is on record as “the necrosis of nerve cell in the brain tissue was attenuated”.
